US20050025821A1, “Lipid-comprising drug delivery complexes and methods for their production” (priority 2001, published 2005)
Non-standard residues stand in square brackets, D forms with d. Residues, ends and D or L forms follow the SMILES beside them. No end group written: not given here.

How the values were obtained:
KB cells [1] = experiment: Effect of lysomotrophic agent on PPAA-mediated transfection; format: cell-based; conditions: added half an hour prior to LPD
Experimental: Lysomotrophic agent, either chloroquine (an anti-malarial drug, weak base protonated in endosome) or bafilomycin A (a specific ATPase inhibitor which reduces the amount of protons entering the endosome), capable of preventing endosomal acidification, were added in varying amounts to the transfection mixture half and hour prior to LPD addition to the cells.

[2] = MTLP peptide stability in serum over time (HPLC-UV); format: in vitro ADME, mouse; conditions: 37° C.; for stability in mouse serum (recovery by HPLC-UV): 1 mg/mL peptide + equal volume mouse serum, 10-120 min
Experimental: The MTLP peptide solutions were prepared at 1 mg/mL and 20 μL aliquots placed in tubes. To one set of tubes an equal volume of mouse serum was added and to a second set 0.9% saline solution was added as negative a control. The tubes were incubated at 37° C. A control and a sample tube were removed at various timepoints (10, 30, 60 and 120 min) and any reaction quenched using 70:30 acetonitrile:water (160 μL). Each quenched sample was then analysed by HPLC-UV at 220 nm with a C18 column (5 μm, 300Å, 250×4.6 mm id) for 45 minutes. Mobile phase A was 10:90 acetonitrile: 0.1% trifluoroacetic acid in water and mobile phase B was 0.1% trifluoroacetic acid in acetonitrile.

MDA-MB-231 cells = experiment: Competition assays of ligand-mediated transfection; format: cell-based, human; conditions: 0.1 μg DNA/well; for effect of 1000-fold excess of free peptide on DSPE-PEG5K-RGD mediated transfection: 10 mol % DSPE-PEG5K-RGD LPD
Experimental: Three competitions assays were performed using MDA-MB-231 cells in order to assess specificity of transfection-mediated-[…] (SEQ ID NO:10) or DSPE-PEG5K-RGD (SEQ ID NO:11). Transfections were performed as described above except that the culture media was supplemented with free LHRH or RGD peptides, or antibody against the LHRH or the integrin receptor as competition agents. 10 mol % pegylated lipid or targeting factor-pegylated lipid conjugate was used for each experiment.
The first competition assay was performed using 1 μg DNA/well. This DNA concentration required a high concentration of free LHRH to achieve a 100 fold excess of free LHRH which was toxic for the cells. Similarly, with the RGD formulation, this DNA concentration required a high concentration of free RGD in order to achieve 100 fold excess of free RGD (3.25 μl of dansyl-labeled RGD ((Integrated Biomolecule Corporation, Tucson, Ariz.) from a solution at 5 mg/ml in H2O) which was toxic for the cells.
In order to decrease LHRH associated toxicity, a second competition assay was performed using 0.1 μg DNA/well (FIGS. 6A and 6B). 0.1 μg DNA/well corresponds to 862.62 ng DSPE-PEG5K-LHRH (SEQ ID NO:10) or 168.6 ng of LHRH/well using a 12 nmol:1 μg lipid:DNA ratio and 10 mol % DSPE-PEG5K-LHRH (SEQ ID NO:10) in the total lipids in the formulation. Transfections were performed as described above. The second competition assay was performed using 17.5 μg/well (5 μl) of anti-LHRH receptor F1G4, and 15 μg/well (50 μl) of anti-LHRH receptor A9E4 from Biogenesis (Kingston, N.H.). The appropriate isotype match antibody (17.5 μg/well), anti-CD3 IgG1K (Pharmingen, San Diego, Calif.), was used as a control. Additionally, a 100-fold and 1000 fold excess of LHRH was tested as a competition agent: the media was supplemented with 6.5 μl or 65 μl of a stock solution of 2.5 mg/ml of [D-Trp]-LHRH from Sigma (St. Louis, Mo.). Moreover, in this particular experiment, 2 anti-LHRH receptor polyclonal serums were tested: 5 μl/well of a rabbit serum anti-LHRH receptor (Biogenesis, Kingston, N.H.) and 50 μl/well sheep serum anti-LHRH receptor (Biogenesis, Kingston, N.H.). The corresponding volumes of control serum were used as an isotype control. Control serums were purchased from Sigma (St. Louis, Mo.).
LPDs were also directly incubated with an anti-LHRH antibody or an isotype control (Anti-IgG) antibody before addition of LPDs to cells in order to block the LHRH molecule on the LPD surface (data not shown). Briefly, 6.67 μl of 1/10 diluted DSPE-PEG5K-LHRH LPDs at 150 μg DNA/ml were mixed with 50 μl of mouse anti-LHRH antibody or control (Dako Corporation, Carpinteria, Calif.) and incubated for 1 h at room temperature prior to transfection as described above. […]

HepG2 cells = experiment: In vitro transfection (luciferase expression); format: cell-based; conditions: for transfection with DC-Chol:DOPE LPDs containing ligand: HepG2 (ASGPR bearing), 100 μM ligand, 1 μg DNA
Experimental: 16-24 hr prior to transfection, 5×10^4 cells (MDA-MB-231, LL/2 or HepG-2 (ATCC, Manassas, Va.)) in 500 μl/well of appropriate media (ATCC catalog describes appropriate media for each cell type) containing 10% FBS were seeded in a 48 well plate (Costar, Coming, N.Y.) and incubated overnight at 37° C. in 5% or 10% CO2. The following day, the media was removed and replaced with 500 μl of fresh serum-free media. […] After transfection, luciferase activity was assayed as described (Promega Luciferase Assay Kit, Cat. No. E1501, Madison, Wis.). Briefly, the cell culture media was removed and replaced by fresh media containing 10% FBS, and the cells were incubated at 37° C. in 5% or 10% CO2 for a further 48 h. Each well was washed with 1 ml PBS 0.095 M pH7.4 (Biowhittaker, Walkersville, Md.) and suspended in 200 μl of 1× luciferase reporter buffer (RLB) (Promega, Madison, Wis.). The cells were then subject to 3 cycles of freeze/thaw at −70° C./37° C., respectively. Cells were harvested and spun for 10 min at 14,000 rpm. 20 μl of the supernatant was assayed for luciferase activity by addition of 100 μl of luciferase substrate (Promega, Madison, Wis.), followed by a 10 sec incubation time at room temperature before luminescence relative units were measured using a Berthold (Aliquippa, Pa. autolumat B953 luminometer. The total protein concentration per sample was determined using a commercial kit of Coomassie plus dye (Pierce, Rockford, Ill.).
(§1) For in vitro cell testing of the galactosylated peptides, the following cell lines were used: HepG2 (ATCC, Manassas, Va.): Hepatocarcinoma cell line expressing the asialyglycoprotein (ASGP) receptor. […] These two cell lines were tested for the presence of the ASGP receptor by westen blotting with an anti-asialoglycoprotein receptor antibody from Calbiochem (Nottingham, UK). This confirmed the presence of the receptor in HepG2 cells and the absence of the receptor from Hep-SK1 cells (data not shown).
(§2) The formulations were incubated with the cells for 4 h, at which point the formulations were aspirated and fresh serum containing complete medium was added to the cells. Cells were harvested 48 h post transfection and were assayed for total cell protein expression and luciferase reporter gene expression. […] Thus, multifunctional targeting factors such as galactose-Elan094 (SEQ ID NO:6) can increase transfection activity over a single fimctional targeting factor.

HepSK1 cells = experiment: In vitro transfection (luciferase expression); format: cell-based, human; conditions: Hep-SK 1 (non-ASGPR), 100 μM ligand, 1 μg DNA
Experimental: as §1, §2
In vitro cell transfections were carried out as described supra in a number of cell types. […] The results for two different cell types, a human liver cell line (HepSK1) and a human breast cell line (MDA-MB-231), are shown in Tables 7 and 8.

KB cells [3] = experiment: In vitro transfection (luciferase expression); format: cell-based; conditions: 1 μg DNA/well
Experimental: The following day, the media was removed and replaced with 500 μl of fresh serum-free media.

[4] = biological target: LHRH receptor on MDA-MB-231, SKOV3-IP1 and H-69 cells (human) (UniProt P30968); experiment: cell-based or functional assay
LHRH receptor on MDA-MB-231, SKOV3-IP1 and H-69 cells (human), sequence (P30968 whole entry): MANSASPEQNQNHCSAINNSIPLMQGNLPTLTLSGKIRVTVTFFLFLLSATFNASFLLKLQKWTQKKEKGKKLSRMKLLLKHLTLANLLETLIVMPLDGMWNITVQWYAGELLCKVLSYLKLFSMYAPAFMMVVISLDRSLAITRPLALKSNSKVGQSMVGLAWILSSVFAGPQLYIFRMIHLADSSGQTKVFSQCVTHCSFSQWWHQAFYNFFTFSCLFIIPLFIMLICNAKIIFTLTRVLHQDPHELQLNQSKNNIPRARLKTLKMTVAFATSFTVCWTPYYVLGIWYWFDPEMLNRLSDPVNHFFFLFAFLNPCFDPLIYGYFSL

Question: With CO/C1=C\C(C)=C\[C@@H](C)[C@@H](O)[C@@H](C)C/C(C)=C/C=C/[C@H](OC)[C@@H]([C@@H](C)[C@@H](O)[C@H](C)[C@@]2(O)C[C@@H](O)[C@H](C)[C@@H](C(C)C)O2)OC1=O [Bafilomycin A, bafilomycin A] as the compound, how does the “effect on PPAA-mediated transfection” value (KB cells [1]; 10 ng/well) read?
Answer: Its value is “appeard to block PPAA-mediated transfection”.

Question: Which “effect on PPAA-mediated transfection” value (KB cells [1]; 1600 nM) does the source give for CCN(CC)CCCC(C)Nc1ccnc2cc(Cl)ccc12 (stereo not shown) [Chloroquine, chloroquine] here?
Answer: Its value is “blocked PPAA-mediated transfection”.

Question: Which “stability in mouse serum (recovery by HPLC-UV)” value [2] does the source give for CC(C)C[C@@H](NC(=O)[C@@H](CC(C)C)NC(=O)[C@H](NC(=O)[C@H]1CCCN1C(=O)[C@@H](CC(C)C)NC(=O)[C@@H](CC(C)C)NC(=O)[C@H](NC(=O)[C@@H](C)NC(=O)[C@@H](C)NC(=O)[C@@H](CCCCN)NC(=O)[C@@H](CCCCN)NC(=O)[C@H](N)CCCCN)C(C)C)C(C)C)C(=O)N[C@H](C)C(=O)N[C@H](C)C(=O)N1CCC[C@@H]1C(=O)O [ZElan207, H2N-kkkaavllpvllaap] (H-[dK][dK][dK][dA][dA][dV][dL][dL][dP][dV][dL][dL][dA][dA][dP]-OH; C-terminus assumed) here?
Answer: The value was “stable in mouse serum up to 2 h”.

Question: With GRGDNP as the compound, how does the “effect of 1000-fold excess of free peptide on DSPE-PEG5K-RGD mediated transfection” value (MDA-MB-231 cells) read?
Answer: The value was “inhibition of transfection activity”.

Question: With GRGDSP as the compound, how does the “effect of 1000-fold excess of free peptide on DSPE-PEG5K-RGD mediated transfection” value (MDA-MB-231 cells) read?
Answer: The value was “inhibition of transfection activity”.

Question: For GRGESP, which “effect of 1000-fold excess of free peptide on DSPE-PEG5K-RGD mediated transfection” value (MDA-MB-231 cells) is on record?
Answer: Its value is “did not inhibit transfection activity”.

Question: Which “transfection with DC-Chol:DOPE LPDs containing ligand” value (HepG2 cells) does the source give for “H2N-KKKAAAVLLPVLLAAPREDL (H-KKKAAAVLLPVLLAAPREDL) [ZElan094R]” here?
Answer: The value was “Increased transfection”.

Question: And the “transfection with DC-Chol:DOPE LPDs containing ligand” value (HepSK1 cells)?
Answer: Its value is “no increase in transfection”.

Question: What does the source list for H-KKKAAAVLLPVLLAAP [ZElan094]?
Answer: stability in mouse serum (recovery by HPLC-UV) [2]: degrades in mouse serum over 2 hr; ligand still detectable at 30 minutes following incubation in mouse serum [2]: up to 60%; start of degradation in mouse serum [2]: > 10 min

Question: Which “effect of 1000-fold excess of free LHRH on DSPE-PEG5K-LHRH mediated transfection” value (MDA-MB-231 cells; 10 mol % DSPE-PEG5K-LHRH LPD) does the source give for “LHRH: free LHRH used as competition agent, [D-Trp]-LHRH from Sigma (QHWSYGLRPG; not fully specified (residue 1, C-terminus); ends and bridges not checked; also: D-Trp, position not given here)” here?
Answer: Its value is “clear inhibition of transfection activity”.

Question: For RRRRRRRH, which “increase in transfection activity when formulated with CHEMS:DOPE compared to peptide-compacted DNA alone” value (KB cells [3]) is on record?
Answer: Its value is 2 fold.

Question: Which “transfection with DC-Chol:DOPE LPDs containing ligand” value (HepG2 cells) does the source give for S(Galactose)KKAAAVLLPVLLAAP [GElan094] here?
Answer: The value was “Increased transfection”.

Question: And the “transfection with DC-Chol:DOPE LPDs containing ligand” value (HepSK1 cells)?
Answer: Its value is “no increase in transfection”.

Question: Which luciferase expression in MDA-MB-231 cells after transfection with LPDs containing 10 mol % DSPE-PEG5K-LHRH, free LHRH in the medium as competition agent [4] does the source give for “[D-Trp]-LHRH from Sigma (from UniProt P01148 24-33) (peptide)” here?
Answer: Its luciferase expression in MDA-MB-231 cells after transfection with LPDs containing 10 mol % DSPE-PEG5K-LHRH, free LHRH in the medium as competition agent is 1000 fold.

Question: Which “dose giving optimal transfection” value (HepG2 cells; DC-chol:DOPE LPDs, dose titration (FIG. 14)) does the source give for “des-Pro-KKAAAVLLPVLLAAS-Galactose [Elan094G]” here?
Answer: The value was 50 µM.

Question: What about the “transfection with DC-Chol:DOPE LPDs containing ligand” value (HepG2 cells) of the same compound?
Answer: Its value is “Increased transfection”.

Question: And the “transfection with DC-Chol:DOPE LPDs containing ligand” value (HepSK1 cells)?
Answer: Its value is “no increase in transfection”.
